Laboratory results published in patent US20260176249A1, “PROTEIN KINASE INHIBITOR, PREPARATION METHOD THEREFOR, AND APPLICATION THEREOF” (SHANDONG LUYE PHARMACEUTICAL CO., LTD., priority 2021, published 2026).
Read-outs that look alike come from different tables or passages of the source.

Columns and labels:
PLK1 kinase = target: T1, PLK1 kinase (Homo sapiens, UniProt P53350); test: Inhibitory activity on PLK1 kinase; assay type: biochemical; details: for Imax: maximum effect caused by the compound at the test concentration
T1 construct: purchased Carnabio (Carna Biosciences) 05-157
T1 sequence (P53350 whole entry): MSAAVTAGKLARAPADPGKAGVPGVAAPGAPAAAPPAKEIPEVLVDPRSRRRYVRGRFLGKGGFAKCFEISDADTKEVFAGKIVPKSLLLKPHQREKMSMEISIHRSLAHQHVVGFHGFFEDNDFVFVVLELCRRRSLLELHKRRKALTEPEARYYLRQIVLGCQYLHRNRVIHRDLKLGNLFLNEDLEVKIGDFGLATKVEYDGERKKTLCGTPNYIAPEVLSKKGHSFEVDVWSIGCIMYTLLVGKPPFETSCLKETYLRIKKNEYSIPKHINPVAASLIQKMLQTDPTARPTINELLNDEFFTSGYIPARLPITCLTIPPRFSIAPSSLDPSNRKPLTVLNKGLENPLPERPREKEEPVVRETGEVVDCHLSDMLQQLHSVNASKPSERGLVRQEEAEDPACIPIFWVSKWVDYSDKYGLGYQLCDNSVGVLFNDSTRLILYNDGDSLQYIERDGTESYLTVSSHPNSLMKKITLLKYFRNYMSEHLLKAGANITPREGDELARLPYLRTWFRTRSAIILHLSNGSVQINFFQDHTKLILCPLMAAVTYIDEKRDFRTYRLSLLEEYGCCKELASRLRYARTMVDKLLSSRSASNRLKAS
Method: Detection solution PerkinElmer #TRF0218-M
Detection instrument PerkinElemer EnVision
a. Using the Echo machine, the compounds to be tested were diluted by 1:3 on a 384-well plate, and the highest concentration was 1 μM, with a total of 10 concentration points, and each concentration was tested in duplicate wells.
b. 5 μL/well of PLK1 kinase and peptide substrate mixture were added to the assay plate (containing controls).
d. The reaction was initiated by adding 5 μL/well of ATP solution;
e. The assay plate was centrifuged at 1000 rpm for about 15 seconds, a film was used to seal the assay plate which was incubated at 23° C. for a period of time;
f. A detection solution was added to all wells of the assay plate;
g. The assay plate was centrifuged at 1000 rpm for approximately 15 seconds, a film was used to seal the assay plate which was incubated at 23° C. for 60 min.
h. The assay plate was read on EnVision. The test results were analyzed using XLFIT5 software.

HCT116 cells = test: Inhibitory activity on HCT116 cell proliferation (ATPlite); assay type: cell-based; details: Homo sapiens
Method: Cell culture medium: RPMI1640+10% FBS (GBICO)
Cell culture plate: 96-well plate (Shanghai Jingan Biotechnology Co., Ltd.)
Detection kit: ATPlite 1step Luminescence (PerkinElmer)
Detection instrument: BioTek multifunctional microplate reader
2. Test method: HCT116 cells in the logarithmic growth phase were seeded into a white-wall clear-bottom 96-well plate at a density of 720 cells per well, and cultured overnight in a 37° C., 5% CO2 incubator. […] After adding the drug, culturing was continued for 72 h in a 37° C., 5% CO2 incubator.
GraphPad Prism 7.0 was used to process the data, the cell inhibition rate curve was obtained and IC50 was calculated.

[1] = HCT-116, HCT116 cells, 72 h, read-out: IC50

IC50 (HCT116 cells; [1]) [nM] | IC50 (PLK1 kinase; PLK1 kinase, highest concentration 1 μM, 10 points, read-out: IC50) [nM] | SMILES | IC50 (PLK1 kinase) [nM] | Imax (PLK1 kinase) [%] | IC50 (HCT116 cells; HCT-116, 72 h) [nM]
 |  | CN1CCN(c2ccc(OC(F)(F)F)c(Nc3ncc4ccc5c(C(N)=O)nn(C6CC6)c5c4n3)c2)CC1 [Compound 27] | 0.459 | 100.24 | 
 |  | CN1CCN(c2ccc(OC(F)(F)F)c(Nc3ncc4ccc5c(C(=O)NOCCO)nn(CCO)c5c4n3)c2)CC1 [Compound 31] | 1.55 | 99.54 | 
 |  | CN1CCN(c2ccc(OC(F)(F)F)c(Nc3ncc4ccc5c(C(N)=O)cn(CCO)c5c4n3)c2)CC1 [Compound 21] | 0.756 | 99.15 | 
 |  | CN1CCN(c2ccc(OC(F)(F)F)c(Nc3ncc4ccc5c(C(=O)NO)nn(CC(F)(F)F)c5c4n3)c2)CC1 [Compound 32] | 0.463 | 99.87 | 
2720 |  | CN1CCN(c2ccc(OC(F)(F)F)c(Nc3ncc4ncc5c(C(N)=O)nn(CCO)c5c4n3)c2)CC1 [Compound 6] |  |  | 
 |  | CN1CCN(c2ccc(OC(F)(F)F)c(Nc3ncc4ccc5c(C(=O)NOCCO)nn(CCF)c5c4n3)c2)CC1 [Compound 30] | 0.776 | 99.97 | 
 |  | CCn1nc(C(N)=O)c2ccc3cnc(Nc4cc(N5CCN(C)CC5)ccc4OC(F)(F)F)nc3c21 [Compound 29] |  |  | 77
924 | 73.3 | CN1CCN(c2ccc(OC(F)(F)F)c(Nc3ncc4c(n3)-c3c(c(C(N)=O)nn3CCO)N(C)C4)c2)CC1 [Compound 5] |  | 76.81 | 
